Measurements as given in PMC11249626, “Fluorophore-Labeled Pyrrolones Targeting the Intracellular Allosteric Binding Site of the Chemokine Receptor CCR1” (ACS Pharmacology & Translational Science, 2024).
Blank lines part the entries; values can stand above or below the compound they belong to.

Experiments:
[1] = target: vasopressin-2 receptor (V2R); set-up: method as in PMID 17435162; conditions: cited from earlier work
[2] = target: T1, CCR1 (Homo sapiens, UniProt P32246); assay: Membrane-based NanoBRET competition kinetic assay with 12 (1000 nM) and CCR1_Nluc membranes; format: binding; set-up: Promega pNLF1-C (Nluc) #CCR010TN00; host or cells: HEK293T, transient (PEI)
T1 sequence (P32246 1-355): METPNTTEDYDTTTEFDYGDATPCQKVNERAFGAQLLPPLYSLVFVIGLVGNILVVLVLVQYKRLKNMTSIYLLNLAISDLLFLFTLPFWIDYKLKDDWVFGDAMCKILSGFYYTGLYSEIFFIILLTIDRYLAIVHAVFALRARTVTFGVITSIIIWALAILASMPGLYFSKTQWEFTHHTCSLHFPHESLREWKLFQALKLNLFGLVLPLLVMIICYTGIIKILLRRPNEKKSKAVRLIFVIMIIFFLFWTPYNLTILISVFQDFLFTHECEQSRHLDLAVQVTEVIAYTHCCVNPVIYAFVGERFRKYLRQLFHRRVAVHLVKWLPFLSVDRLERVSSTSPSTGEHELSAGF

[3] = target: T2, CXCR1 (Homo sapiens, UniProt P25024); assay: Membrane-based NanoBRET saturation binding assay, CXCR1_Nluc membranes
T2 construct: host or cells: HEK293T, transient
T2 sequence (P25024 1-350): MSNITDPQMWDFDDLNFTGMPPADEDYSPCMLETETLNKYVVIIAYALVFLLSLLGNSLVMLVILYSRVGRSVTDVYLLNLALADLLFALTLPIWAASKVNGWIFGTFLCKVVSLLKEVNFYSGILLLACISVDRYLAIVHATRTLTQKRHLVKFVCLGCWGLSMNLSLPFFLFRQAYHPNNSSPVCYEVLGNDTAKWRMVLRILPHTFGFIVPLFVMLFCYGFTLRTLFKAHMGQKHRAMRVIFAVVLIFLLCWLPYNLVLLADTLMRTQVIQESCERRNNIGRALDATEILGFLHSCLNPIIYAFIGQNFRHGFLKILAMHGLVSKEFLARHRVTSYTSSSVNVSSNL
Method: (§1) Emission spectra of Nluc -labeled CCR1 (CCR1_Nluc) protein: The emission spectra of CCR1_Nluc has already been reported by Toy et al.1 For a confirmation of the reported data with new CCR1_Nluc membrane batches, furimazine (Promega, Mannheim, Germany 1:2000) was added to the membrane preparations (2 µg protein/well). […]
(§2) NanoBRET binding assays: Membrane-based NanoBRET saturation assay: For the establishment of our NanoBRET binding assay, we referred to recently published protocols. […]
(§3) Then, 20 µL of the membrane preparations diluted in assay buffer (3 µg total protein/well) were added and the plates were incubated for 90 min at 37 °C. Subsequently, 5 µL of a furimazine solution (Promega, Mannheim, Germany, final assay dilution: 1:5,000) were added to each well (final assay volume: 35 µL) before measuring luminescence with a CLARIOstar microplate reader using 620/10 nm and 475/30 nm emission filters after 5 min of incubation in the dark. Bioluminescence resonance energy transfer (BRET) was determined as the ratio of acceptor fluorescence and donor luminescence. […] Specific binding signals were calculated as a difference of total and non-specific binding. If required, netBRET values were calculated as the difference between total BRET values and the values obtained in the absence of a fluorescent ligand. […]

[4] = target: T3, CXCR2 (Homo sapiens, UniProt P25025); assay: Membrane-based NanoBRET saturation binding assay, CXCR2_Nluc membranes; conditions: compared with CCR1
T3 construct: host or cells: HEK293T, transient
T3 sequence (P25025 1-360): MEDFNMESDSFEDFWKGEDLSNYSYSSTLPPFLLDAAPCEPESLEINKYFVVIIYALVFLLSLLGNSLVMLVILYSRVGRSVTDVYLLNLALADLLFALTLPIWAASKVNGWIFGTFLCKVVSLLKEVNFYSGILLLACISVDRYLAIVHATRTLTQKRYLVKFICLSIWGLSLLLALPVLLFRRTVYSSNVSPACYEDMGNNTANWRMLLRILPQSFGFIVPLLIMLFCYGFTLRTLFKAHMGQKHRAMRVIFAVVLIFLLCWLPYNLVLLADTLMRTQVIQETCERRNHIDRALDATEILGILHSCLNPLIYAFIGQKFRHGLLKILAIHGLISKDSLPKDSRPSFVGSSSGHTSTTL
Method: as §1, §2, §3

SMILES: O=C(C1=C(O)C(=O)N(CCc2ccc(O)cc2)C1c1ccc(F)cc1)c1ccccc1 (racemic) [compound 23]
Ki [1]: ~70 nM

koff ([2]; CCR1_Nluc membranes): 0.0019 s⁻¹
kon ([2]; CCR1_Nluc membranes): 723000 M⁻¹ s⁻¹
tr (kinetic competition) ([2]; CCR1_Nluc membranes): 9.1 ± 0.5 min
Ki ([2]; kinetic competition, read-out: Ki(kin.)): 2.63 nM
SMILES: CC(=O)C1=C(O)C(=O)N(c2ccc(Br)cc2F)C1C1CCCCC1 (stereo not shown) [compound 5, reference compound]

Kd [3]: 12300 ± 300 nM
Binding signal for CXCR2 [4]: much weaker
SMILES: CN(C)c1ccc2c(-c3cc(C(=O)NCCOCCOCc4cn(CCCC(=O)C5=C(O)C(=O)N(c6ccc(Br)cc6F)C5C5CCCCC5)nn4)ccc3C(=O)[O-])c3ccc(=[N+](C)C)cc-3oc2c1 (stereo not shown) [compound 12]
